“Also recorded” adds a separate entry of the source.
Key:
[1] = system: Isolated, perfused female guinea pig hearts; experiment: Effect on AF duration (ACh plus burst pacing) in Langendorff heart; conditions: for reduction of AF duration as compared to time matched controls (in words): administered alone, ICA 100 nmol/L, flecainide 1 μmol/L, ranolazine 3 μmol/L; for Log AF duration: log(10)-transformed, means±SEM, 1 μmol/L ACh, burst pacing 50 Hz, ICA 0.1 μM, flecainide 1 μM, ranolazine 3 μM
Method: (§1) The isolated heart was prepared as follows. Guinea pigs weighing between 350 and 600 g were anesthetized with i.p. injection of 200 mg/kg pentobarbital. In addition, 1000 IU/kg heparin were injected i.p. Respiration was maintained by artificial ventilation(atm air) through a cannula in the trachea (volume, 12 ml/kg; rate, 60 strokes/min). Upon thoracotomy, a perfusion cannula was inserted and fixed in the aorta for retro-grade perfusion. Hearts were mounted in a vertical Langendorff set-up (Hugo Sachs-Harvard Apparatus GmbH, March-Hugstetten, Germany) and perfused with Krebs-Henseleit solution: 120.4 mM NaCl, 4.0 mM KCl, 2.5 mM CaCl2, 0.6 mM MgSO4, 15.3 mM NaHCO3, 0.6 mM NaH2PO4, and 11.5 mM glucose, pH 7.4, at constant oxygenation with O2/CO2 in a 95/5% mixture at 37° C. Four monophasic action potential (MAP) electrodes were placed on the left atrium, the right atrium, the left ventricle, and right ventricle, respectively. A pacing electrode was placed on the right atrium. The electro-cardiogram (ECG) was obtained with three ECG electrodes placed in close proximity to the heart. All data were acquired using the 16-channel PowerLab system (ADInstruments, Oxfordshire, UK). Pacing stimuli were twice the diastolic threshold and with a duration of 2 milliseconds (ms) unless otherwise stated.
(§2) The aERP was measured (10 basic stimuli [called S1] followed by premature S2 stimuli applied with 2-ms decrements) immediately before and at the end of the 30-minute period at pacing rates of 5 Hz and 10 Hz. After the 30 minutes of perfusion with either 100 nmol/L N-(pyridin-2-yl)-4-(pyridin-2-yl)thiazol-2-amine (ICA), 1 μmol/L flecainide, or 3 μmol/L ranolazine, or vehicle, 1 μmol/L ACh was added to the perfusate and induction of AF was attempted 40 times with burst-pacing (50 Hz) for 2 seconds or until sustained (duration>3 min) AF was obtained (test compound dissolved in DMSO in a stock concentration of 10 mMol/L). ICA in a concentration of 100 nmol/L was then tested in combination with either 1 μmol/L flecainide or 3 μmol/L ranolazine using the same protocol as described above in this section.

[2] = system: Isolated, perfused female guinea pig hearts; experiment: Effect on atrial effective refractory period (aERP) in Langendorff heart; conditions: for prolongation of aERP from baseline values as compared to time matched controls (in words): administered alone, ICA 100 nmol/L, flecainide 1 μmol/L, ranolazine 3 μmol/L; for percentual prolongation of aERP after 30 minutes of perfusion as compared to the baseline: ICA 0.1 μM, flecainide 1 μM, ranolazine 3 μM, ±SEM
Method: as §1, §2

[3] = system: Isolated, perfused female guinea pig hearts; experiment: Dose finding: cardioversion of acetylcholine/burst-pacing induced AF in Langendorff heart; conditions: for cardioversion obtained (animals converted out of animals): within 30 min, AF induced by 1 μmol/L ACh and burst pacing
Method: as §1
Isolated, perfused female guinea pig hearts from Dunkin Hartley strain (HsdPoc:DH) continuously paced on the right atrium (300 bpm) were allowed to stabilize, and the atrial effective refractory period (aERP) was measured. AF was induced by 1 μmol/L acetylcholine (ACh) combined with burst pacing (50 Hz, 10V). When sustained (>3minutes) AF was obtained, the test compound from a stock concentration of 10 mMol/L in DMSO was added to the perfusate in a concentration of 100 nmol/L for 30 min. If no cardioversion was obtained within 30 minutes, the concentration of the compound in the perfusate was increased to 300 nmol/L. If no cardioversion was obtained within an additional time period of 30 minutes, the concentration of the compound in the perfusate was increased to 1.0 μmol/L. If no cardioversion was obtained within a further time period of 30 minutes, the concentration of the compound in the perfusate was increased to 3.0 μmol/L. If no cardioversion was obtained within an additional time period of 30 minutes, the concentration of the compound in the perfusate was increased to 10.0 μmol/L. If no cardioversion was obtained within an additional time period of 30 minutes, the concentration of the compound in the perfusate was increased to 30.0 μmol/L. Cardioversion was considered obtained if sinus rhythm was obtained within 30 minutes of one of the above mentioned drug applications, and if sustained AF could not be reinduced with burst pacing stimulation immediately after this.

[4] = concentration 3.0 μM in perfusate

| Structure (SMILES) | reduction of AF duration as compared to time matched controls (in words) [1] | Log AF duration [1] | prolongation of aERP from baseline values as compared to time matched controls (in words) [2] | percentual prolongation of aERP after 30 minutes of perfusion as compared to the baseline ([2]; pacing frequency 5 Hz) | percentual prolongation of aERP after 30 minutes of perfusion as compared to the baseline ([2]; pacing frequency 10 Hz) | cardioversion obtained (animals converted out of animals) [3, 4] | cardioversion obtained (animals converted out of animals) ([3]; concentration 10.0 μM in perfusate) | cardioversion obtained (animals converted out of animals) ([3]; concentration 0.3 μM in perfusate) | cardioversion obtained (animals converted out of animals) ([3]; concentration 1.0 μM in perfusate) | No cardioversion (animals out of animals) ([3]; stepwise 0.1 to 30.0 μM, 30 min each) |
| --- | --- | --- | --- | --- | --- | --- | --- | --- | --- | --- |
| O=C(NCC1CCCCN1)c1cc(OCC(F)(F)F)ccc1OCC(F)(F)F (stereo not drawn) [Flecainide, N-(piperidin-2-ylmethyl)-2,5-bis(2,2,2-trifluoroethoxy)benzamide] | no significant reduction of AF duration; also recorded: sub-effective | 1.27 ± 0.14 | no significant prolongation of aERP; also recorded: sub-effective | 123.0 ± 2.6% | 124.6 ± 8.0% | 2/4 | 2/4 | – | – | – |
| c1ccc(Nc2nc(-c3ccccn3)cs2)nc1 [ICA, N-(pyridin-2-yl)-4-(pyridin-2-yl)thiazol-2-amine] | no significant reduction of AF duration; also recorded: does not cause any significant effects | 1.29 ± 0.15 | no significant prolongation of aERP; also recorded: does not cause any significant effects | 112.5 ± 3.8% | 119.3 ± 10.6% | – | – | 4/4 | – | – |
| COc1ccccc1OCC(O)CN1CCN(CC(=O)Nc2c(C)cccc2C)CC1 (stereo not drawn) [Ranolazine, N-(2,6-dimethylphenyl)-2-[4-[2-hydroxy-3-(2-methoxyphenoxy)-propyl]piperazin-1-yl]acetamide] | no significant reduction of AF duration; also recorded: sub-effective | 1.11 ± 0.23 | no significant prolongation of aERP; also recorded: sub-effective | 114.81 ± 12.7% | 114.4 ± 9.9% | 2/5 | – | – | 1/5 | 2/5 |
